Data on two molecules can be found in patent US20210315816A1, “ANTIMICROBIAL COMPOSITIONS AND METHODS” (BOARD OF REGENTS OF THE UNIVERSITY OF NEBRASKA, priority 2018, published 2021).

Series [1] concerns biofilm-associated monocytes. The experiment in a line: JC-1 and 2-NBDG staining of biofilm-associated monocytes (OxPhos, glycolysis). The format is in vivo, mouse. The conditions noted are these: days 3 or 7 after intra-articular injection at day 7 post-infection; oligomycin 100 ng. As to the method: C57BL/6NCrl mice received a single intra-articular injection of free oligomycin only (Oligo; 100 ng), empty nanoparticles (CT), empty nanoparticles (CT)+free oligomycin (100 ng; not loaded), or oligomycin loaded nanoparticles (CTO) at day 7 post-infection and were analyzed at day 3 (FIG. 12A, 12B; 5 mice/group) or 7 (FIGS. 12C, 12D; 9-10 mice/group) after treatment. FIGS. 12A, 12C: OxPhos was calculated as the ratio of […] monocytes (CD11b^highLy6G^−Ly6C^+F4/80^−) following JC-1 staining and glycolytic activity was calculated as the percentage of 2-NBDG+ monocytes. FIGS. 12B, 12D: Bacterial burdens were assessed in the surrounding soft tissue, knee, femur, and implant, where the dotted lines represent the limit of detection (LOD). All results are reported as the mean±SD (*, p<0.05; **, p<0.01; ***, p<0.001; ****, p<0.0001; One-way ANOVA).
Leukocytes recovered from animals with sterile or S. aureus infected orthopedic implants were stained with the bi-potential dye JC-1 (5,5′,6,6′-Tetrachloro-1,1′,3,3′-tetraethylbenzimidazolocarbocyanine iodide; Cat #T3168 Invitrogen) or the fluorescent glucose analog 2-NBDG (2-(N-(7-Nitrobenz-2-oxa-1,3-diazol-4-yl)Amino)-2-Deoxyglucose; Cat #N13195 ThermoFisher) to evaluate OxPhos and glycolytic activity, respectively. JC-1 emits red fluorescence in mitochondria with large membrane potentials and green fluorescence in depolarized mitochondria. […]

The test system of the next series is S. aureus USA300 LAC13c. The series can be described thus: Mouse model of S. aureus orthopedic implant biofilm infection, bacterial burdens. It counts as in vivo. As to the method: To model infectious complications that can arise in patients following arthroplasty, a mouse model of S. aureus orthopedic implant infection was used (Heim, et al. (2014) Methods Mol. Biol., 1106:183-191; Heim, et al. (2015) J. Leukoc. Biol., 98:1003-1013; Heim, et al. (2014) J. Immunol., 192:3778-3792; Heim, et al. (2015) J. Immunol., 194:3861-3872; Scherr, et al. (2014) Methods Mol. Biol., 1106:173-181). […] Briefly, mice were anesthetized with ketamine/xylazine (100 mg/kg and 5 mg/kg, respectively) and the surgical site was disinfected with povidone-iodine. After a surgical plane of anesthesia was achieved, a medial incision was created through the quadriceps with lateral displacement to access the distal femur. […]
Animals were placed in an induction chamber without restraint and anesthetized with 2.5% isoflurane. […] Nanoparticle injection and length of retention was evaluated in the same cohort of mice using an In Vivo Imaging System (IVIS® Spectrum; PerkinElmer, Waltham, Mass.) under isoflurane anesthesia, with excitation and emission wavelengths of 640 nm and 680 nm, respectively. […]

Series [2] deals with S. aureus. The experiment in a line: S. aureus biofilm formation in 96-well plates ± oligomycin. The format is cell-based. As to conditions: 10 μg/mL. As to the method: C57BL/6NCrl mice received intra-articular injections of oligomycin at 7 day post-infection (100 ng), or two sequential doses at days 7 and 8 post-infection (50 ng/day), or PBS and were sacrificed at day 14 post-infection. Bacterial burdens were quantified from the surrounding soft tissue, knee, femur, and implant. Results are from one experiment (n=5 mice/group/time point); (*, p<0.05; one-way ANOVA). Additionally, S. aureus biofilm formation was assessed in 96-well plates±oligomycin treatment (bottom graphs). Oligomycin (10 μg/mL) was added to planktonic S. aureus at time 0 (left panel) or mature biofilms for 4 days (right panel) to determine effects on bacterial growth at the indicated time points following oligomycin treatment. Cultures were replenished daily with fresh medium containing oligomycin. Results are presented as Log10 colony forming units (CFU) per well (mean±SD).

Series [3] relates to bone marrow-derived macrophages. The experiment in a line: IL-4 pre-treated bone marrow-derived macrophages with oligomycin: TNF-α, arginase, protein yield. As to the method: Bone marrow-derived macrophages were plated overnight and the following day cells were pre-treated with IL-4 (10 ng/mL) for 1 hour followed by various concentrations of oligomycin for 24 hours, whereupon TNF-α (FIG. 2A) and arginase (FIG. 2B) expression was determined by ELISA and enzymatic assay, respectively. Data are presented as the mean±SD combined from two independent experiments (n=6 biological replicates) (*, p<0.05; **, p<0.01; ***, p<0.001; Student's t-test).
Macrophages were expanded from the bone marrow of both male and female C57BL/6NCrl mice as described (Yamada, et al. (2018) Infect. Immun., 86(7) e00206-18). At day in vitro 6, macrophages were harvested and seeded at 5×10^4 cells/well in a 96-well plate. Following an overnight adherence period, macrophages were pre-treated with 10 ng/mL recombinant mouse (rm)IL-4 (Cat #574306 BioLegend, San Diego, Calif.) for 1 hour followed by exposure to various concentrations of oligomycin (Cat #11342 Cayman Chemical) for 24 hours, whereupon medium was collected to quantify TNF-α by cytometric bead array (Cat #552364, BD Biosciences) and arginase activity (Cat #MAK112, Millipore Sigma).

Series [4] deals with S. aureus. The conditions noted are these: 10 mg/kg, cited from earlier work.
[5] abbreviates: IL-4 10 ng/mL 1 hour, then oligomycin 24 hours, dose-dependent.

For `CC[C@H]1/C=C/C=C/C[C@@H](C)[C@H](O)[C@@](C)(O)C(=O)[C@@H](C)[C@H](O)[C@@H](C)C(=O)[C@@H](C)[C@H](O)[C@@H](C)/C=C/C(=O)O[C@@H]2[C@H](C)[C@H](CC1)O[C@]1(CC[C@H](C)[C@H](C[C@@H](C)O)O1)[C@H]2C` [oligomycin], in series [1], the “monocyte OxPhos activity (JC-1)” value was “no changes”. Moreover, the biofilm burdens result in the series with S. aureus USA300 LAC13c (days 3 or 7 after intra-articular injection, oligomycin 100 ng) is given as “no changes”. Also, the bacterial burdens result in the series on S. aureus USA300 LAC13c (direct intra-articular injection, one bolus (100 ng) or two sequential doses (50 ng/day), day 14 post-infection) is on record as “no effect on bacterial burdens”. Moreover, the “bactericidal activity during early biofilm formation or mature biofilms in vitro” value with S. aureus [2] is “no bactericidal activity”. For the same molecule, the “toxicity to macrophages (protein yields)” value in series [3] was “not toxic to macrophages”. For the same molecule, in series [3] (setting [5]), the TNF-α expression entry is on record as “increasing TNF-α expression” and the arginase activity result was “decreasing arginase activity”.
As to `CCCCCCCCCC(=O)N[C@@H](Cc1c[nH]c2ccccc12)C(=O)N[C@H](CC(N)=O)C(=O)N[C@@H](CC(=O)O)C(=O)N[C@@H]1C(=O)NCC(=O)N[C@@H](CCCN)C(=O)N[C@@H](CC(=O)O)C(=O)N[C@H](C)C(=O)N[C@@H](CC(=O)O)C(=O)NCC(=O)N[C@H](CO)C(=O)N[C@@H]([C@H](C)CC(=O)O)C(=O)N[C@@H](CC(=O)c2ccccc2N)C(=O)O[C@@H]1C` [daptomycin], in the series on S. aureus [4], the “S. aureus titers in the joint” value is on record as “less affected”. In addition, the “S. aureus burdens on orthopedic implants” value with S. aureus [4] (near the limit of detection) was < 10^2 CFU.
